The values that follow come from ChEMBL document CHEMBL5143672, “New diarylpentanoids and chalcones as potential antimicrobial adjuvants” (2022).

Converted amounts (≈) assume the structure as drawn.

The subject of one test is Escherichia coli. As to the kind of experiment: Antibacterial activity against Escherichia coli ATCC 25922 assessed as inhibition of bacterial growth by broth microdilution method. The class given is functional.
Details: not given
A general note: In broth dilution the organism is exposed to a series of concentrations in liquid medium.
Consider `COc1cc(OC)c(OC)cc1/C=C1\CSc2ccccc2C1=O`, for which the MIC was more than 64 µg/mL.

Another test deals with Pseudomonas aeruginosa. In words: Antibacterial activity against Pseudomonas aeruginosa ATCC 27853 assessed as inhibition of bacterial growth by broth microdilution method. The class given is functional.
Details: not given
Turning to `COc1cc(OC)c(OC)cc1/C=C1\CSc2ccccc2C1=O`, the MIC is more than 64 µg/mL.

In a further test the test system is Salmonella typhimurium. As to the kind of experiment: Antibacterial activity against Salmonella enterica serovar typhimurium SL1344 (SE03) assessed as inhibition of bacterial growth by broth microdilution method. Format: functional, Salmonella enterica subsp. enterica serovar Typhimurium.
Details: not given
With `COc1cc(OC)c(OC)cc1/C=C1\CSc2ccccc2C1=O`, the minimum inhibitory concentration (MIC) is more than 64 µg/mL.

In the next test the test system is Staphylococcus aureus. As to the kind of experiment: Antibacterial activity against Staphylococcus aureus ATCC 25923 assessed as inhibition of bacterial growth by broth microdilution method. Format: functional.
Details: not given
On to `COc1cc(OC)c(OC)cc1/C=C1\CSc2ccccc2C1=O`, for which the MIC was more than 64 µg/mL.

The next test has as its system Enterococcus faecalis. As to the kind of experiment: Antibacterial activity against Enterococcus faecalis ATCC 29212 assessed as inhibition of bacterial growth by broth microdilution method. Format: functional.
Details: not given
For `COc1cc(OC)c(OC)cc1/C=C1\CSc2ccccc2C1=O`, the minimal inhibitory concentration (MIC) is more than 64 µg/mL.

For another test, the system named is Staphylococcus aureus. As to the kind of experiment: Antibacterial activity against methicillin and ofloxacin-resistant Staphylococcus aureus 272123 assessed as inhibition of bacterial growth by broth microdilution method. The class given is functional.
Details: not given
Turning to `COc1cc(OC)c(OC)cc1/C=C1\CSc2ccccc2C1=O`, the MIC was more than 64 µg/mL.

In another test the test system is Candida albicans. As to the kind of experiment: Antifungal activity against Candidia albicans ATCC 10231 assessed as inhibition of fungal growth by broth microdilution method.
Details: not given
The class given is functional.
Take `COc1cc(OC)c(OC)cc1/C=C1\CSc2ccccc2C1=O`: the minimal inhibitory concentration (MIC) is more than 128 µg/mL.

For the next test, the system named is Aspergillus fumigatus. As to the kind of experiment: Antifungal activity against Aspergillus fumigatus ATCC 204305 assessed as inhibition of fungal growth by broth microdilution method. The class given is functional.
Details: not given
For the compound `COc1cc(OC)c(OC)cc1/C=C1\CSc2ccccc2C1=O`, the minimal inhibitory concentration (MIC) was more than 128 µg/mL.

The test system of the next test is Trichophyton rubrum. In words: Antifungal activity against Trichophyton rubrum FF5 assessed as inhibition of fungal growth by broth microdilution method.
Details: not given
Format: functional.
With `COc1cc(OC)c(OC)cc1/C=C1\CSc2ccccc2C1=O`, the minimum inhibitory concentration (MIC) is more than 128 µg/mL.

In the next test the test system is Enterococcus faecalis. In words: Antimicrobial adjuvant activity against Enterococcus faecalis B3/101 assessed as potentiation of vancomycin-induced antibacterial activity by measuring fold reduction in vancomycin MIC at 64 ug/ml by broth microdilution method. Particulars: dose 64 µg/ml. Format: functional.
Regarding `COc1cc(OC)c(OC)cc1/C=C1\CSc2ccccc2C1=O`, the “fold change (FC)” value is 2.

The next test deals with Salmonella enterica subsp. enterica serovar Typhimurium. As to the kind of experiment: Inhibition of Multidrug resistance efflux pump in Salmonella enterica serovar typhimurium SL1344 (SE03) assessed as relative fluorescence index using ethidium bromide as substrate at 50 uM by fluorescence based analysis.
Details: not given
Consider `COc1cc(OC)c(OC)cc1/C=C1\CSc2ccccc2C1=O`, for which the RFU was -0.02.

Test system in a further test: not listed separately
In words: Inhibition of Multidrug resistance efflux pump in Staphylococcus aureus 272123 assessed as relative fluorescence index using ethidium bromide as substrate at 50 uM by fluorescence based analysis.
Details: not given
Take `COc1cc(OC)c(OC)cc1/C=C1\CSc2ccccc2C1=O`: the RFU amounted to 0.36.

Test system in a further test: not listed separately
In words: Inhibition of Multidrug resistance efflux pump in Staphylococcus aureus 272123 assessed as relative fluorescence index using ethidium bromide as substrate at 25 uM by fluorescence based analysis.
Details: not given
`COC(=O)[C@H]1[C@H]2C[C@@H]3c4[nH]c5cc(OC)ccc5c4CCN3C[C@H]2C[C@@H](OC(=O)c2cc(OC)c(OC)c(OC)c2)[C@@H]1OC` [RESERPINE]: the RFU came to 0.35.

For a further test, the system named is Salmonella enterica subsp. enterica serovar Typhimurium. In words: Inhibition of Multidrug resistance efflux pump in Salmonella enterica serovar typhimurium SL1344 (SE03) assessed as relative fluorescence index using ethidium bromide as substrate at 25 uM by fluorescence based analysis.
Details: not given
In the case of `N#CC(C#N)=NNc1cccc(Cl)c1`, the RFU was found to be 0.3.

For another test, the system named is Staphylococcus aureus. As to the kind of experiment: Inhibition of biofilm formation in Staphylococcus aureus ATCC 25923 at 100 uM incubated for 48 hrs by crystal violet staining based analysis. Format: functional.
Details: not given
Regarding `COC(=O)[C@H]1[C@H]2C[C@@H]3c4[nH]c5cc(OC)ccc5c4CCN3C[C@H]2C[C@@H](OC(=O)c2cc(OC)c(OC)c(OC)c2)[C@@H]1OC` [RESERPINE], the inhibition at 100 µM amounted to 22.3%.

On to `COc1cc(OC)c(OC)cc1/C=C1\CSc2ccccc2C1=O`, for which 100 µM produced 0% inhibition.

The test system of the next test is Staphylococcus aureus. In words: Inhibition of biofilm formation in Staphylococcus aureus 272123 at 100 uM incubated for 48 hrs by crystal violet staining based analysis.
Details: not given
Format: functional.
The compound `COC(=O)[C@H]1[C@H]2C[C@@H]3c4[nH]c5cc(OC)ccc5c4CCN3C[C@H]2C[C@@H](OC(=O)c2cc(OC)c(OC)c(OC)c2)[C@@H]1OC` [RESERPINE] registered an inhibition at 100 µM of 72.1%.

Turning to `COc1cc(OC)c(OC)cc1/C=C1\CSc2ccccc2C1=O`, testing at 100 µM gave an inhibition of 74.1%.

Test system in a further test: not listed separately
As to the kind of experiment: Inhibition of quorum sensing system in Chromobacterium violaceum wild type 85 assessed as reduction in pigment production incubated for 24 to 48 hrs. The conditions noted are these: time 24-48 hrs.
`CC(CN1c2ccccc2Sc2ccccc21)N(C)C` (stereo not drawn): the Activity came out at 40 mm.

In the case of `COc1cc(OC)c(OC)cc1/C=C1\CSc2ccccc2C1=O`, the Activity turned out to be 0 mm.

Another test relates to Serratia marcescens. As to the kind of experiment: Inhibition of quorum sensing system in Serratia marcescens AS-1 assessed as reduction in pigment production incubated for 24 to 48 hrs. Particulars: time 24-48 hrs.
Take `CC(CN1c2ccccc2Sc2ccccc21)N(C)C` (stereo not drawn): the Activity was determined as 18 mm.

Take `COc1cc(OC)c(OC)cc1/C=C1\CSc2ccccc2C1=O`: the Activity worked out at 0 mm.

Test system in another test: not listed separately
As to the kind of experiment: Inhibition of quorum sensing system in Chromobacterium violaceum CV026 assessed as reduction in pigment production co-cultured with Sphingomonas paucimobilis Ezf 10-17 for 24 to 48 hrs. Particulars: time 24-48 hrs.
Turning to `CC(CN1c2ccccc2Sc2ccccc21)N(C)C` (stereo not drawn), the Activity was 41 mm.

On to `COc1cc(OC)c(OC)cc1/C=C1\CSc2ccccc2C1=O`, for which the Activity amounted to 0 mm.

Another test concerns Micrococcus luteus. As to the kind of experiment: Antibacterial activity against Micrococcus luteus 28001 assessed as inhibition zone incubated for 24 hrs by agar plate method.
Details: not given
The class given is functional.
`COc1cc(/C=C2\CCC/C(=C\c3cc(OC)c(OC)c(OC)c3)C2=O)cc(OC)c1OC`: the “inhibition zone (IZ)” value is listed as 9 mm.

The subject of the next test is Enterobacter cloacae. As to the kind of experiment: Antibacterial activity against Enterobacter cloacae 45301 assessed as inhibition zone incubated for 24 hrs by agar plate method.
Details: not given
Format: functional.
Consider `O=C1/C(=C/c2ccccc2Br)CC/C1=C\c1ccccc1Br`, for which the “inhibition zone (IZ)” value is 10 mm.

Take `COc1cc(/C=C2\CCC/C(=C\c3cc(OC)c(OC)c(OC)c3)C2=O)cc(OC)c1OC`: the “inhibition zone (IZ)” value came to 10 mm.

The next test has as its system Staphylococcus aureus. As to the kind of experiment: Antibacterial activity against Staphylococcus aureus ATCC 25923 assessed as inhibition zone incubated for 24 hrs by disc diffusion method. The class given is functional.
Details: not given
As to `COc1cccc(/C=C2\CCc3ccccc3C2=O)c1`, the “inhibition zone (IZ)” value came to 18 mm.

The test system of another test is Staphylococcus epidermidis. In words: Antibacterial activity against Staphylococcus epidermidis ATCC 12228 assessed as inhibition zone incubated for 24 hrs by disc diffusion method. The class given is functional.
Details: not given
For `COc1cccc(/C=C2\CCc3ccccc3C2=O)c1`, the “inhibition zone (IZ)” value stood at 15 mm.

In the next test the test system is Pseudomonas aeruginosa. In words: Antibacterial activity against Pseudomonas aeruginosa ATCC 27853 assessed as inhibition zone incubated for 24 hrs by disc diffusion method. The class given is functional.
Details: not given
In general terms: In agar diffusion tests the substance spreads into inoculated agar from a disc or well.
Regarding `COc1cccc(/C=C2\CCc3ccccc3C2=O)c1`, the “inhibition zone (IZ)” value is 18 mm.

Another test concerns Klebsiella pneumoniae. As to the kind of experiment: Antibacterial activity against Klebsiella pneumoniae ATCC 13883 assessed as inhibition zone incubated for 24 hrs by disc diffusion method.
Details: not given
The class given is functional.
Turning to `COc1cccc(/C=C2\CCc3ccccc3C2=O)c1`, the “inhibition zone (IZ)” value was determined as 18 mm.

A further test has as its system Escherichia coli. As to the kind of experiment: Antibacterial activity against Escherichia coli ATCC 25922 assessed as inhibition zone incubated for 24 hrs by disc diffusion method. Format: functional.
Details: not given
For the compound `COc1cccc(/C=C2\CCc3ccccc3C2=O)c1`, the “inhibition zone (IZ)” value amounted to 17 mm.

A further test concerns Candida albicans. As to the kind of experiment: Antifungal activity against Candida albicans ATCC 10231 assessed as inhibition of fungal growth incubated for 18 hrs by optical density based analysis. Format: functional.
Details: not given
For `COc1cc(OC)c2c(c1)OC/C(=C\c1ccccc1)C2=O`, the minimal inhibitory concentration (MIC) worked out at 25 µM (≈ 7.41 µg/mL).

As usually defined, the MIC is the smallest concentration in the dilution series that meets the test's criterion for growth inhibition. Usually inhibition stands for how much of the control response was suppressed. A lower inhibition goes with a weak effect.
